ChEMBL document CHEMBL4421722, “Inhibitors of protein prenyltransferases” (2013)
Active and inactive are the calls of the source. No cut-off for these calls is given here.

Key:
[1] = Clearance in SCID mouse xenografted with human PANC1 cells at 1.16 mg/kg, ip dosed once or 6 times per week; format: ADME, organism-based; conditions: in vivo
[2] = target: T1, Geranylgeranyl transferase type-2 (Homo sapiens) (UniProt P53611+Q92696); test: Inhibition of RabGGTase in HEK293 cells assessed as reduction in geranylgeranylation of Rab5b protein at 5 to 10 uM incubated for 48 hrs by SDS-PAGE and immunoblot analysis; format: cell-based
[3] = Toxicity in SCID mouse xenografted with human PANC1 cells assessed as effect on cholesterol level at 1.16 mg/kg, ip dosed 3 times per week and measured every 2 weeks up to day 14 to day 47; format: organism-based; conditions: in vivo, 336 h
[4] = system: K562; test: Induction of cell cycle arrest in human K562 cells assessed as accumulation at G1 phase incubated for 48 hrs by flow cytometry; format: functional, cell-based
[5] = Toxicity in SCID mouse xenografted with human PANC1 cells assessed as effect on BUN level at 1.16 mg/kg, ip dosed 3 times per week and measured every 2 weeks up to day 14 to day 47; format: organism-based; conditions: in vivo, 336 h
[6] = Toxicity in SCID mouse xenografted with human PANC1 cells assessed as effect on ALB level at 1.16 mg/kg, ip dosed 3 times per week and measured every 2 weeks up to day 14 to day 47; format: organism-based; conditions: in vivo, 336 h
[7] = system: PANC-1; test: Antitumor activity against human PANC1 cells xenografted in SCID mouse assessed as inhibition of tumor growth at 1.16 mg/kg, ip dosed six times per week and measured every 2 weeks; format: functional, organism-based
[8] = system: HEK293; test: Inhibition of geranylgeranyltransferase type I in HEK293 cells expressing Myc-HA-tagged Rheb-WT assessed as effect on unprenylated Rap1 accumulation at 2.5 uM incubated for 48 hrs by SDS-PAGE and immunoblot analysis; format: cell-based; conditions: Homo sapiens
[9] = Toxicity in SCID mouse xenografted with human PANC1 cells assessed as effect on NE level at 1.16 mg/kg, ip dosed 3 times per week and measured every 2 weeks up to day 14 to day 47; format: organism-based; conditions: in vivo, 336 h
[10] = Toxicity in SCID mouse xenografted with human PANC1 cells assessed as effect on LY level at 1.16 mg/kg, ip dosed 3 times per week and measured every 2 weeks up to day 14 to day 47; format: organism-based; conditions: in vivo, 336 h
[11] = Toxicity in SCID mouse xenografted with human PANC1 cells assessed as effect on ALT […] level at 1.16 mg/kg, ip dosed 3 times per week and measured every 2 weeks up to day 14 to day 47; format: organism-based; conditions: in vivo, 336 h
[12] = system: MCF7; test: Antiproliferative activity against human MCF7 cells assessed as inhibition of cell proliferation incubated for 6 days by CCK8 assay; format: functional, cell-based
[13] = Toxicity in SCID mouse xenografted with human PANC1 cells assessed as effect on creatinine level at 1.16 mg/kg, ip dosed 3 times per week and measured every 2 weeks up to day 14 to day 47; format: organism-based; conditions: in vivo, 336 h
[14] = Toxicity in SCID mouse xenografted with human PANC1 cells assessed as effect on WBC level at 1.16 mg/kg, ip dosed 3 times per week and measured every 2 weeks up to day 14 to day 47; format: organism-based; conditions: in vivo, 336 h
[15] = system: PANC-1; test: Antitumor activity against human PANC1 cells xenografted in SCID mouse assessed as inhibition of tumor growth at 1.16 mg/kg, ip dosed 3 times per week and measured every 2 weeks up to day 14 to day 47; format: functional, organism-based
[16] = Toxicity in SCID mouse xenografted with human PANC1 cells assessed as effect on CK level at 1.16 mg/kg, ip dosed 3 times per week and measured every 2 weeks up to day 14 to day 47; format: organism-based; conditions: in vivo, 336 h
[17] = Toxicity in SCID mouse xenografted with human PANC1 cells assessed as effect on AST […] level at 1.16 mg/kg, ip dosed 3 times per week and measured every 2 weeks up to day 14 to day 47; format: organism-based; conditions: in vivo, 336 h
[18] = system: Jurkat; test: Antiproliferative activity against human Jurkat cells assessed as inhibition of cell proliferation incubated for 72 hrs by CCK8 assay; format: functional, cell-based
[19] = Toxicity in SCID mouse xenografted with human PANC1 cells assessed as effect on CA level at 1.16 mg/kg, ip dosed 3 times per week and measured every 2 weeks up to day 14 to day 47; format: organism-based; conditions: in vivo, 336 h
[20] = target: Protein farnesyltransferase (Rattus norvegicus) (UniProt Q04631+Q02293); test: Inhibition of rat recombinant FTase alpha/beta expressed in Escherichia coli at 100000 nM using K-Ras4B as a substrate as and [3H]farnesyl pyrophosphate incubated for 30 mins by scintillation counting assay
[21] = system: PANC-1; test: Antitumor activity against human PANC1 cells xenografted in SCID mouse assessed as inhibition of tumor growth at 1.16 mg/kg, ip dosed once time per week and measured every 2 weeks; format: functional, organism-based
[22] = target: T1, Geranylgeranyl transferase type-2 (Homo sapiens); test: Inhibition of RabGGTase (unknown origin) at 100000 nM using YPTI as substrate protein and [3H]geranylgeranyl pyrophosphate incubated for 20 mins by scintillation counting assay; format: protein-complex assay
[23] = system: K562; test: Induction of cell cycle arrest in human K562 cells assessed as reduction in accumulation at S phase incubated for 48 hrs by flow cytometry; format: functional, cell-based
[24] = Inhibition of rat recombinant geranylgeranyltransferase type I expressed in Escherichia coli assessed as reduction in geranylgeranylation of RhoA incubated for 30 mins in presence of [3H]GGPP by scintillation counting assay relative to control
[25] = Toxicity in SCID mouse xenografted with human PANC1 cells assessed as effect on PLT level at 1.16 mg/kg, ip dosed 3 times per week and measured every 2 weeks up to day 14 to day 47; format: organism-based; conditions: in vivo, 336 h
[26] = Toxicity in SCID mouse xenografted with human PANC1 cells assessed as effect on ALP level at 1.16 mg/kg, ip dosed 3 times per week and measured every 2 weeks up to day 14 to day 47; format: organism-based; conditions: in vivo, 336 h
[27] = target: Protein farnesyltransferase (Homo sapiens) (UniProt P49354+P49356); test: Inhibition of FTase in HEK293 cells assessed as reduction in H-ras farnesylation at 2.5 to 10 uM incubated for 48 hrs by SDS-PAGE and immunoblot analysis; format: cell-based
[28] = Toxicity in SCID mouse xenografted with human PANC1 cells assessed as effect on GLU level at 1.16 mg/kg, ip dosed 3 times per week and measured every 2 weeks up to day 14 to day 47; format: organism-based; conditions: in vivo, 336 h
[29] = Toxicity in SCID mouse xenografted with human PANC1 cells assessed as effect on RBC level at 1.16 mg/kg, ip dosed 3 times per week and measured every 2 weeks up to day 14 to day 47; format: organism-based; conditions: in vivo, 336 h
[30] = species on record: Mus musculus; test: Inhibition of geranylgeranyltransferase type I in mouse NIH/3T3 cells transfected with p21WAF1/CIP1 promoter-Luc assessed as induction of p21 CIP1/WAF1 expression by luciferase reporter gene assay; format: cell-based

CL/F [1]: 0.0173 mL/min
inhibition [2]: inactive
GI50 [18]: 4.89 to 6.1 µM
inhibition [20]: inactive
inhibition [22]: inactive
IC50 [24]: 1 to 7.7 µM
inhibition [27]: inactive
Compound: Cc1ccccc1S(=O)(=O)N1[C@@H](c2ccc(Cl)cc2)C(C(=O)N[C@@H](Cc2ccccc2)C(N)=O)=C[C@H]1C(C)(C)C
Activity [3]: Non-Toxic
Activity [4]: Dose-dependent effect
Activity [5]: Non-Toxic
Activity [6]: Non-Toxic
TGI [7]: Active
inhibition [8]: Active
Activity [9]: Non-Toxic
Activity [10]: Non-Toxic
Activity [11]: Non-Toxic
inhibition [12]: Dose-dependent effect
Activity [13]: Non-Toxic
Activity [14]: Non-Toxic
TGI [15]: Active
Activity [16]: Non-Toxic
Activity [17]: Non-Toxic
Activity [19]: Non-Toxic
TGI [21]: Active
Activity [23]: Dose-dependent effect
Activity [25]: Non-Toxic
Activity [26]: Non-Toxic
Activity [28]: Non-Toxic
Activity [29]: Non-Toxic
Activity [30]: Dose-dependent effect
